Experimental data: patent publication US20250333420A1, “FUSED BICYCLIC PYRIMIDONES AS WRN INHIBITORS” (INCYTE CORPORATION, priority 2023, published 2025)
pIC50: −log10 of the molar value. Structures can show the parent of a compound that is named as a salt.

Assays:
[1] = target: T1, WRN (Homo sapiens, UniProt Q14191); assay: WRN helicase activity assay (fluorescence DNA unwinding); type: biochemical; details: 1-hr pre-incubation with enzyme; 100 μM ATP, 25 nM forked dsDNA, 1 nM WRN; geometric mean of at least 2 replicates
T1 construct: A His-tagged construct of WRN (AA S2-S1235) was produced and used for the ATPase assay; His tag; made in house; host or cells: Sf9 insect cells (baculovirus, pFastBac1)
T1 sequence (Q14191 2-1235): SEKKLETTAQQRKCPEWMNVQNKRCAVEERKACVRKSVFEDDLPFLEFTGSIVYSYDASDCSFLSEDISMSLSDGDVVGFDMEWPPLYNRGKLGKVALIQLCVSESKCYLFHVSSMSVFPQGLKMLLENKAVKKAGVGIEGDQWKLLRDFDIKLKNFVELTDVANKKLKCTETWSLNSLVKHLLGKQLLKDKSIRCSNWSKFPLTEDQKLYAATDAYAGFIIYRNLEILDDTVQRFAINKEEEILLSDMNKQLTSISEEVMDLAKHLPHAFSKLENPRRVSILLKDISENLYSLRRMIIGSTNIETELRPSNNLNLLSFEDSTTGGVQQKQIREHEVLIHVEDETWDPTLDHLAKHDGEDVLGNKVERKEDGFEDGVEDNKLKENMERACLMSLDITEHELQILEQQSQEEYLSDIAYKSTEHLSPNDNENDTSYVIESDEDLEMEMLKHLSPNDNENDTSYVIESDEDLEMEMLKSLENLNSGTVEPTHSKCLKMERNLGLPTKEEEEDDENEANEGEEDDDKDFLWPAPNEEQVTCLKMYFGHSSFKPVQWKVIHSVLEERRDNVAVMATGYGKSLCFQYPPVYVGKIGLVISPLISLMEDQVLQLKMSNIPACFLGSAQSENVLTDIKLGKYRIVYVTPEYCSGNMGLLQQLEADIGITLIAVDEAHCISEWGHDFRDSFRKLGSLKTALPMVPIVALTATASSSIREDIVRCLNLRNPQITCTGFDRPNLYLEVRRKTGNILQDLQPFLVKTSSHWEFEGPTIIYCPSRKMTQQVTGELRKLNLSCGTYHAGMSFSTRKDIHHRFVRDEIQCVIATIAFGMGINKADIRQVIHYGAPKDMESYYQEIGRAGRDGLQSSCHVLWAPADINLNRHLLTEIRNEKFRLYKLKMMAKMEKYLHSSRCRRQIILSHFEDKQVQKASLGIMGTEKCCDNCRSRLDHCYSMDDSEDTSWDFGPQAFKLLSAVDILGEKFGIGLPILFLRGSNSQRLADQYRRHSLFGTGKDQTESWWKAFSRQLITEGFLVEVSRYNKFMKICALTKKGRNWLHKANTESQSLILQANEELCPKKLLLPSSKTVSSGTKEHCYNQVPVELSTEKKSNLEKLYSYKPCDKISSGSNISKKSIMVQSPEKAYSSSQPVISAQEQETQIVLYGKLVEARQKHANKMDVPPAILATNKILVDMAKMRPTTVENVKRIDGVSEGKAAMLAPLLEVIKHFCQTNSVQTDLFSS
Description: Compounds of the examples were tested for WRN helicase activity. DNA encoding the target protein, 6×HIS-TEV-WRN-517-945, was produced, cloned and transfected as detailed in Example D. To determine the inhibitory properties of the compounds, a 384 wells plate-based Helicase assay was set up to measure the extent of DNA unwinding (Helicase) activity of WRN. The WRN Helicase assay was designed to measure increase in fluorescence signal using a fluorescence based, donor-quencher paired forked dsDNA oligomer substrate (custom synthesis from Sigma-Aldrich) prepared by annealing equal amounts of oligo GPat-1 ([BHQ2][…]) and oligo GPat-2 ([…][TAM]). Continuous measurement of fluorescent signal was used to optimize the buffer conditions, concentration of enzyme (WRN), concentration of substrates (ATP & dsDNA), and the linearity of the Helicase reaction. All solutions were prepared in the following assay buffer: 50 mM Tris-HCl, pH-7.5, 2 mM MgCl2, 50 mM NaCl, 1 mM EGTA, 0.01% P-20, 0.05% BSA, and 2 mM DTT prepared with nuclease free water.
A serial dilution (1:3 scheme) of the compounds was prepared in neat DMSO and 100 nL of the compounds was dispensed in the Greiner black low volume (Greiner #784076) 384 wells assay plate. An 1-hr pre-incubation of the compounds with enzyme was included. A His-tagged construct of WRN (AA S2-S1235) was produced and used for the ATPase assay. Maximum inhibition control wells were set up with the addition of only assay buffer, and no inhibition control wells were set up with neat DMSO without test compounds. The reaction was initiated by addition of 5 μL substrate mix (200 μM ultrapure ATP, and 50 nM dsDNA prepared in assay buffer) and incubated at 25° C. for 35 min. A typical Helicase reaction consists of 25 nM forked dsDNA, 100 μM ATP, and 1 nM WRN prepared in assay buffer. The WRN Helicase reaction was quenched by the addition of 5 μL ‘STOP’ solution containing 100 mM EDTA (final EDTA concentration 33.33 mM) prepared in assay buffer. The plates were read on BMG PHERAstar FSX using 540/590 module to measure an increase of fluorescence. Data analysis was carried out using the Genedata software following % of control normalization. Fitting parameters include dose response IC50, Hill slope (n), maximum inhibition (S∞), and minimum inhibition (S0). The reported IC50 values for compounds in this invention are the geometric means of at least 2 independent replicates.

[2] = target: T1, WRN; assay: WRN ATPase activity assay (ADP-Glo); type: biochemical; details: 1-hr pre-incubation with enzyme; 100 μM ATP, 25 nM forked dsDNA, 1 nM WRN; geometric mean of at least 2 replicates
Description: Compounds of the Examples were tested for WRN ATPase activity. WRN ATPase activity catalyzes ATP hydrolysis to produce ADP and phosphate. DNA encoding the target protein, 6×HIS-TEV-WRN-517-945, was produced, cloned and transfected as detailed in Example D. The amount of ADP produced was measured using ADP-Glo™ Kinase Assay kit from Promega Corporation in a Greiner white regular volume 384 wells assay plate (Greiner #781075). Data was normalized to a standard curve generated using various ADP concentrations and the corresponding luminescent signal intensities at each concentration. The assay conditions were optimized for enzyme concentration (WRN), substrate concentrations (ATP & dsDNA), and the linearity of the ATPase reaction, in the following assay buffer: 50 mM Tris-HCl, pH-7.5, 2 mM MgCl2, 50 mM NaCl, 1 mM EGTA, 0.01% P-20, 0.05% BSA, and 2 mM DTT prepared with nuclease free water.
A serial dilution (1:3 scheme) of the compounds were prepared in neat DMSO, with 100 nL of the compounds dispensed in the 384 wells assay plate. An 1-hr pre-incubation of the compounds with enzyme was included. A His-tagged construct of WRN (AA S2-S1235) was produced and used for the ATPase assay. Maximum inhibition control wells were set up with the addition of only assay buffer, and no inhibition control wells were set up with neat DMSO without test compounds. The reaction was initiated by addition of 5 μL substrate mix (200 μM ultrapure ATP, and 50 nM dsDNA prepared in assay buffer) and incubated at 25° C. for 35 min. A forked dsDNA oligomer substrate was prepared by annealing equal amounts of oligo GPat-1 ([BHQ2][…]) and oligo GPat-2 ([…][TAM]) and was used as dsDNA substrate for WRN ATPase assay. A typical ATPase reaction consists of 25 nM forked dsDNA, 100 μM ATP, and 1 nM WRN prepared in assay buffer. The WRN ATPase reaction was stopped by the addition of 5 μL of ADP-Glo Reagent from ADP-Glo™ Kinase Assay kit and incubated for 40 min to deplete the unreacted ATP. Afterwards, 5 μL of Kinase Detection Reagent from the ADP-Glo™ Kinase Assay kit was added and incubated for 1 hr for the development of luminescence signal.
Luminesce signals were measured on BMG PHERAstar FSX using luminescence protocol. Data analysis was carried out using Genedata software following % of control normalization. Fitting parameters include dose response IC50, Hill slope (n), maximum inhibition (S∞), and minimum inhibition (S0). The reported IC50 values for compounds in this invention are the geometric means of at least 2 independent replicates.

| SMILES | pIC50 [1] | pIC50 [2] |
| --- | --- | --- |
| C=CC(=O)Nc1ccccc1-n1c(CC)nc2c(c(C)c(C)n2CC(=O)Nc2ccc(C(F)(F)F)cc2Cl)c1=O [Example 4, N-(2-(7-(2-((2-Chloro-4-(trifluoromethyl)phenyl)amino)-2-oxoethyl)-2-ethyl-5,6-dimethyl-4-oxo-4,7-dihydro-3H-pyrrolo[2,3-d]pyrimidin-3-yl)phenyl)acrylamide] | > 7.00 | > 7.00 |
| C=CC(=O)Nc1ccccc1-n1c(CC)nc2c(cnn2CC(=O)Nc2ccc(C(F)(F)F)cc2)c1=O [Example 1, N-(2-(6-Ethyl-4-oxo-1-(2-oxo-2-((4-(trifluoromethyl)phenyl)amino)ethyl)-1,4-dihydro-5H-pyrazolo[3,4-d]pyrimidin-5-yl)phenyl)acrylamide] | 5.30 to 6.00 | 5.30 to 6.00 |
| C=CC(=O)Nc1ccccc1-n1c(CC)nc2c(c(C)c(C)n2CC(=O)Nc2ccc(C(F)(F)F)cc2)c1=O [Example 3, N-(2-(2-Ethyl-5,6-dimethyl-4-oxo-7-(2-oxo-2-((4-(trifluoromethyl)phenyl)amino)ethyl)-4,7-dihydro-3H-pyrrolo[2,3-d]pyrimidin-3-yl)phenyl)acrylamide] | > 7.00 | > 7.00 |
| C=CS(=O)(=O)Nc1ccccc1-n1c(CC)nc2c(cnn2CC(=O)Nc2ccc(C(F)(F)F)cc2)c1=O [Example 2, 2-(6-Ethyl-4-oxo-5-(2-(vinylsulfonamido)phenyl)-4,5-dihydro-1H-pyrazolo[3,4-d]pyrimidin-1-yl)-N-(4-(trifluoromethyl)phenyl)acetamide] | > 7.00 | > 7.00 |

The remaining lines, values ahead:

| pIC50 [1] | pIC50 [2] | SMILES |
| --- | --- | --- |
| > 7.00 | > 7.00 | C=CC(=O)Nc1ccccc1-n1c(CC)nc2c(c(C)c(C)n2CC(=O)Nc2ccc(F)cc2)c1=O [Example 5, N-(2-(2-Ethyl-7-(2-((4-fluorophenyl)amino)-2-oxoethyl)-5,6-dimethyl-4-oxo-4,7-dihydro-3H-pyrrolo[2,3-d]pyrimidin-3-yl)phenyl)acrylamide] |
| > 7.00 | > 7.00 | C=CC(=O)Nc1cc(C(=O)NCC)ccc1-n1c(CC)nc2c(c(C)c(C)n2CC(=O)Nc2ccc(C(F)(F)F)cc2)c1=O [Example 6, 3-Acrylamido-N-ethyl-4-(2-ethyl-5,6-dimethyl-4-oxo-7-(2-oxo-2-((4-(trifluoromethyl)phenyl)amino)ethyl)-4,7-dihydro-3H-pyrrolo[2,3-d]pyrimidin-3-yl)benzamide, trifluoroacetate salt] |
| > 7.00 | > 7.00 | C=CC(=O)Nc1cc(C(=O)NCC)ccc1-n1c(CC)nc2c(c(C)c(C)n2CC(=O)Nc2ccc(F)cc2)c1=O [Example 7, 3-Acrylamido-N-ethyl-4-(2-ethyl-7-(2-((4-fluorophenyl)amino)-2-oxoethyl)-5,6-dimethyl-4-oxo-4,7-dihydro-3H-pyrrolo[2,3-d]pyrimidin-3-yl)benzamide, trifluoroacetate salt] |
